Assay results from ChEMBL document CHEMBL4002580, “Chloromethylhalicyclamine B, a Marine-Derived Protein Kinase CK1δ/ε Inhibitor” (J Nat Prod, 2016).
Calls of active or inactive are those of the source. The calls are words filed in the database; no cut-off is given here.

What was measured:
[1] = biological target: Dual specificity protein kinase CLK4 (Mus musculus) (UniProt O35493); assay: Inhibition of mouse recombinant GST-fused CLK4 expressed in Escherichia coli at 0.003 to 10 uM using RS peptide as substrate after 30 mins in presence of [gamma-33P]ATP by scintillation counting method
[2] = Inhibition of porcine brain CK1delta/epsilon using CKS peptide as substrate after 30 mins in presence of [gamma-33P]ATP by scintillation counting method; design: species or system Sus scrofa
[3] = biological target: Dual specificity tyrosine-phosphorylation-regulated kinase 1B (Homo sapiens) (UniProt Q9Y463); assay: Inhibition of human recombinant GST-fused DYRK1B expressed in Escherichia coli at 0.003 to 10 uM using RS peptide as substrate after 30 mins in presence of [gamma-33P]ATP by scintillation counting method
[4] = biological target: Dual specificity protein kinase CLK3 (Mus musculus) (UniProt O35492); assay: Inhibition of mouse recombinant GST-fused CLK3 expressed in Escherichia coli at 0.003 to 10 uM using RS peptide as substrate after 30 mins in presence of [gamma-33P]ATP by scintillation counting method
[5] = tested on: Leishmania major; assay: Inhibition of Leishmania major recombinant CK1 expressed in Escherichia coli at 0.003 to 10 uM using CKS peptide as substrate after 30 mins in presence of [gamma-33P]ATP by scintillation counting method
[6] = biological target: T1, Dual specificity tyrosine-phosphorylation-regulated kinase 2 (Homo sapiens) (UniProt Q92630); assay: Inhibition of human recombinant GST-fused DYRK2 expressed in Escherichia coli at 0.003 to 10 uM using RS peptide as substrate after 30 mins in presence of [gamma-33P]ATP by scintillation counting method
T1 sequence (whole entry): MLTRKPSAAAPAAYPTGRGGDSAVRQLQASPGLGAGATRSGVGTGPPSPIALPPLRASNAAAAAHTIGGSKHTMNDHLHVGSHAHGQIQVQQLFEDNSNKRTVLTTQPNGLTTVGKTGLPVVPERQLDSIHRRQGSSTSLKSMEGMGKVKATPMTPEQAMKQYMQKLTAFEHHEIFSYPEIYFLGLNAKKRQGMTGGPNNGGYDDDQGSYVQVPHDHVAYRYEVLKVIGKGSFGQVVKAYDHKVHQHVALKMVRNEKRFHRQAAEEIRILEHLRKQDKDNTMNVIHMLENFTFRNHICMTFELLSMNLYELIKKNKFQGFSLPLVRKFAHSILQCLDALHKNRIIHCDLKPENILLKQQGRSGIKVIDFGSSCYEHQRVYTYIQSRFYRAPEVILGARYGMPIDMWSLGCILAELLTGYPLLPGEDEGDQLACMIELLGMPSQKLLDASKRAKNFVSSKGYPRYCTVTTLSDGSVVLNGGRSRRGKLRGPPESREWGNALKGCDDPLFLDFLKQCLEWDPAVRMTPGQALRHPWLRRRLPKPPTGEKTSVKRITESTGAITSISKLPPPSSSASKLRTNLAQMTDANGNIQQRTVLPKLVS

[7] = biological target: T2, Dual specificity tyrosine-phosphorylation-regulated kinase 3 (Homo sapiens) (UniProt O43781); assay: Inhibition of human recombinant GST-fused DYRK3 expressed in Escherichia coli at 0.003 to 10 uM using RS peptide as substrate after 30 mins in presence of [gamma-33P]ATP by scintillation counting method
T2 sequence (whole entry): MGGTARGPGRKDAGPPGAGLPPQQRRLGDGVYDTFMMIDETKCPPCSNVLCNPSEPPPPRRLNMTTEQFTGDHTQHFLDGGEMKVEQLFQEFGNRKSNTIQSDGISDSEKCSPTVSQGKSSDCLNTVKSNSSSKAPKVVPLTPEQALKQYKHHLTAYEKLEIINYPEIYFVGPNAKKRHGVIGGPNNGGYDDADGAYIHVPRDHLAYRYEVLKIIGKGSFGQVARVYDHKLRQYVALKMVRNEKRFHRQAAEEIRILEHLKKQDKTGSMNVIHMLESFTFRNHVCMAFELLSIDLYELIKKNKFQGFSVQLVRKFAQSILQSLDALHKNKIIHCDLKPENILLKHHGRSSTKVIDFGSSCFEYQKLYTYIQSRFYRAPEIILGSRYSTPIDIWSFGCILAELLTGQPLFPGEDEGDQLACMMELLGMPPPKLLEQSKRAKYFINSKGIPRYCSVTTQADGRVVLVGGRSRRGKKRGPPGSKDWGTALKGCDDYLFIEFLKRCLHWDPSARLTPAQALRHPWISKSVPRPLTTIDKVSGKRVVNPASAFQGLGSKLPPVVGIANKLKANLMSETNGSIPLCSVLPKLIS

[8] = biological target: Dual specificity protein kinase CLK2 (Mus musculus) (UniProt O35491); assay: Inhibition of mouse recombinant GST-fused CLK2 expressed in Escherichia coli at 0.003 to 10 uM using RS peptide as substrate after 30 mins in presence of [gamma-33P]ATP by scintillation counting method
[9] = biological target: CDK2/Cyclin A2 (Homo sapiens) (UniProt P24941+P20248); assay: Inhibition of CDK2/cyclin A (unknown origin) at 0.003 to 10 uM after 30 mins in presence of [gamma-33P]ATP by scintillation counting method; type: protein-complex assay
[10] = biological target: Cyclin-dependent kinase 5/CDK5 activator 1 (Homo sapiens) (UniProt Q00535+Q15078); assay: Inhibition of recombinant human CDK5/p25 expressed in Escherichia coli at 0.003 to 10 uM using histone H1 as substrate after 30 mins in presence of [gamma-33P]ATP by scintillation counting method
[11] = biological target: CDK9/cyclin T1 (Homo sapiens) (UniProt O60563+P50750); assay: Inhibition of recombinant human CDK9/cyclin T expressed in insect cells at 0.003 to 10 uM using CDK7/9-Tide as substrate after 30 mins in presence of [gamma-33P]ATP by scintillation counting method
[12] = species on record: Homo sapiens; assay: Inhibition of GSK3 (unknown origin) at 0.003 to 10 uM using GS-1 as substrate after 30 mins in presence of [gamma-33P]ATP by scintillation counting method
[13] = species on record: Sus scrofa; assay: Inhibition of porcine brain CK1delta/epsilon at 0.003 to 10 uM using CKS peptide as substrate after 30 mins in presence of [gamma-33P]ATP by scintillation counting method
[14] = biological target: Dual specificity protein kinase CLK1 (Mus musculus) (UniProt P22518); assay: Inhibition of mouse recombinant GST-fused CLK1 expressed in Escherichia coli at 0.003 to 10 uM using RS peptide as substrate after 30 mins in presence of [gamma-33P]ATP by scintillation counting method
[15] = biological target: Dual specificity tyrosine-phosphorylation-regulated kinase 1A (Homo sapiens) (UniProt Q13627); assay: Inhibition of GST-fused DYRK1A (unknown origin) expressed in Escherichia coli at 0.003 to 10 uM using RS peptide as substrate after 30 mins in presence of [gamma-33P]ATP by scintillation counting method

Dual specificity protein kinase CLK2 (Mus musculus), sequence (O35491 whole entry, looked up, the tested form may be a part): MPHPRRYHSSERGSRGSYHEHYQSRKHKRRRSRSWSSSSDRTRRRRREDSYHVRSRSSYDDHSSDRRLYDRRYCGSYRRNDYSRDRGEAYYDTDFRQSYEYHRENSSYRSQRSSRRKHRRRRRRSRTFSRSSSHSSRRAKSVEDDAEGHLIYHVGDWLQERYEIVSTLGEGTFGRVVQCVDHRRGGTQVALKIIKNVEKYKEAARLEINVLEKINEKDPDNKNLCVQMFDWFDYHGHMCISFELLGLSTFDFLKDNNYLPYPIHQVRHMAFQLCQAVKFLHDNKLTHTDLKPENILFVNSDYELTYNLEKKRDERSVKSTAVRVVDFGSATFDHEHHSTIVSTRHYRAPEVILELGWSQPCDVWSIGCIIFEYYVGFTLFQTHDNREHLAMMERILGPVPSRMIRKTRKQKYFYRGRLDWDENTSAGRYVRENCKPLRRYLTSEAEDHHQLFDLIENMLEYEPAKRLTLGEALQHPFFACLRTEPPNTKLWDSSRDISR
Dual specificity protein kinase CLK1 (Mus musculus), sequence (P22518 whole entry, looked up, the tested form may be a part): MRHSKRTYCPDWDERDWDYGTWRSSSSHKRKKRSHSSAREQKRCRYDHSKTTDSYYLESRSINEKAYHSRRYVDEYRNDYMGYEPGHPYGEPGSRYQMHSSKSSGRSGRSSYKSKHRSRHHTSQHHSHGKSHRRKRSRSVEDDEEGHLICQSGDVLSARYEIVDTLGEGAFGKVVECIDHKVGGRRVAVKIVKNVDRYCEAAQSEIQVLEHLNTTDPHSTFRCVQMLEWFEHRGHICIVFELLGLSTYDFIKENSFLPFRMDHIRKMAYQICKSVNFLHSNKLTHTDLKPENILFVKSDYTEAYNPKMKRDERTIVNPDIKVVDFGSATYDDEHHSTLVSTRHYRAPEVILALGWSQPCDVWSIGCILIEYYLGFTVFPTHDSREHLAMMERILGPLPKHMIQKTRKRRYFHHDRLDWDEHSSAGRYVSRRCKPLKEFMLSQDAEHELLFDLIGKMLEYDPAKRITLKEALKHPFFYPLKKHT
Cyclin-dependent kinase 5/CDK5 activator 1 (Homo sapiens), sequence (Q00535 whole entry): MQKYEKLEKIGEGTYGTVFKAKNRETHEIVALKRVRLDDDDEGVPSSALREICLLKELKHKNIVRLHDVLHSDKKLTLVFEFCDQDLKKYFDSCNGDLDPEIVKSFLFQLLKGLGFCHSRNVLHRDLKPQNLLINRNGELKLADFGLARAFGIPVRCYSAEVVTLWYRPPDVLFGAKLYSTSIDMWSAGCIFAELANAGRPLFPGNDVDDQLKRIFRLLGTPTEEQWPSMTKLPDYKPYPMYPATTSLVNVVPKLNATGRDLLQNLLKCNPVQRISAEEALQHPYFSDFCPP
Cyclin-dependent kinase 5/CDK5 activator 1 (Homo sapiens), sequence (Q15078 99-307 partner limits assumed): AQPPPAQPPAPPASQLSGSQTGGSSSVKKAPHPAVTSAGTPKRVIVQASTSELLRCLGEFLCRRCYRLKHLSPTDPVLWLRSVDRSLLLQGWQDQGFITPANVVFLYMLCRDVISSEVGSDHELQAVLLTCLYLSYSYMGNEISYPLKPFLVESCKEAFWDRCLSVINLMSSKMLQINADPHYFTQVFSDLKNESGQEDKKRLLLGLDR
Dual specificity tyrosine-phosphorylation-regulated kinase 1B (Homo sapiens), sequence (Q9Y463 whole entry, looked up, the tested form may be a part): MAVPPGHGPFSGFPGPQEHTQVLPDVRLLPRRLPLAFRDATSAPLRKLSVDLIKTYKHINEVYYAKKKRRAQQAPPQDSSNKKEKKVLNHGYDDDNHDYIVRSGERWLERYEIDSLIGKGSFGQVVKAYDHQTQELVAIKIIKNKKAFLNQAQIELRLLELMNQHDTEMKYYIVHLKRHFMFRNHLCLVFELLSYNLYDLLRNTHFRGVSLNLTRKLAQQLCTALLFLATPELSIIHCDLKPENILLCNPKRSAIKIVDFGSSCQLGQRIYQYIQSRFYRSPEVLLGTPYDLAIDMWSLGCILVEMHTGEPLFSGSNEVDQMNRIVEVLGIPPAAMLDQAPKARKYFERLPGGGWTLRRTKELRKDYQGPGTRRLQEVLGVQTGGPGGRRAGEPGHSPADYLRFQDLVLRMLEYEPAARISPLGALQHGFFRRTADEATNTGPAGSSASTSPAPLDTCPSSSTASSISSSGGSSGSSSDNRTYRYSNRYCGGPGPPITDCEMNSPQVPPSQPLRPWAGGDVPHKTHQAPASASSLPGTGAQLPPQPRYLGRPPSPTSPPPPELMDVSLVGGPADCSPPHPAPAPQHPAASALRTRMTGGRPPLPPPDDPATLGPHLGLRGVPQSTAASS
Dual specificity protein kinase CLK3 (Mus musculus), sequence (O35492 whole entry, the tested form may be a part): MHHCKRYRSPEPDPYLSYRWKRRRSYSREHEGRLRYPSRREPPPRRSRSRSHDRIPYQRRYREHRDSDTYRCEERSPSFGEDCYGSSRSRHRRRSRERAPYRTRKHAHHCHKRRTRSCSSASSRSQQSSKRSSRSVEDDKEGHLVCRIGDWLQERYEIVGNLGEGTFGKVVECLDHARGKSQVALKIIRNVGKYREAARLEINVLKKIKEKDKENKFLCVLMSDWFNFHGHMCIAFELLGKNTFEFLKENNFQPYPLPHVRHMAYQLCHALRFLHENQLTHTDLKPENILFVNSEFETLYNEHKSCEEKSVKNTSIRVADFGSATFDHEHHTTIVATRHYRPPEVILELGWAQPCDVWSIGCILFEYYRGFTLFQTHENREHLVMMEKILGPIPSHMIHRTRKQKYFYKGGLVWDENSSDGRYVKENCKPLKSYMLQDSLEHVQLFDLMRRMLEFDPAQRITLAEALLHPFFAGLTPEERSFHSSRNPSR
Dual specificity protein kinase CLK4 (Mus musculus), sequence (O35493 whole entry, looked up, the tested form may be a part): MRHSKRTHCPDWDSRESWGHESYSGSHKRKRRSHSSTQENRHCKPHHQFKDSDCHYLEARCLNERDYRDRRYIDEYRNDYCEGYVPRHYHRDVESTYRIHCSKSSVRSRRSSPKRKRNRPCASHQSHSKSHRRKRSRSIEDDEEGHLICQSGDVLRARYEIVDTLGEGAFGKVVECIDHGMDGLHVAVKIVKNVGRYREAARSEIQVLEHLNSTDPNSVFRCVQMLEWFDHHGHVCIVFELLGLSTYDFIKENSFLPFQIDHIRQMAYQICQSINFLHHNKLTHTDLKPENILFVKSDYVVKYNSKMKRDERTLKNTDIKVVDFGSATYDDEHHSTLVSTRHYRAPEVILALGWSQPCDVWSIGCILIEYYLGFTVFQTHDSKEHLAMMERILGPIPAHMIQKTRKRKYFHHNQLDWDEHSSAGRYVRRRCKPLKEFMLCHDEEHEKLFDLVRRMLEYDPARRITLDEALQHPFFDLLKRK

inhibition [1] | IC50 [2] [µM] | inhibition [3] | inhibition [4] | inhibition [5] | inhibition [6] | inhibition [7] | inhibition [8] | inhibition [9] | inhibition [10] | inhibition [11] | inhibition [12] | inhibition [13] | inhibition [14] | inhibition [15] | SMILES
inactive | 6 | inactive | inactive | inactive | inactive | inactive | inactive | inactive | – | – | – | – | – | – | ClC[N@@+]12CCCC/C=C\CC[C@@H]3C=C4CN(CCCC/C=C\CC[C@H](C1)[C@H]4CC2)C3
– | – | – | – | – | – | – | – | – | inactive | inactive | inactive | inactive | inactive | inactive | C1=C2CN3CCCC/C=C\CC[C@@H]4CN(CCCC/C=C\CC[C@H]1C3)CC[C@@H]24
